Among the test systems are NCI-H522 lung; HCT-15 colon; A549 NSCLC; OVCAR-4 ovarian; RXF 393 renal; COLO 205 colon; ACHN renal; MOLT-4 leukemia; MDA-MB-435; MDA-MB-231 breast.
Common to all, as to assay: growth of human tumour cells (NCI), 48 h

Where “and” joins values, the source holds several entries; their conditions need not be identical. Identical values can stand only once.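 Tested at 5 concentrations; 48 h exposure; 96-well plates; endpoints linearly interpolated, else capped at highest concentration. GI50: concentration for 50% inhibition of growth. TGI is the concentration that stops growth completely.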 Some results are limits rather than exact numbers.

`CN1CCCCC(C(O)(c2ccccc2)c2ccccc2)C1=O` (centres undefined): the TGI in the assay on NCI-H522 lung is greater than 100 µM; with HCT-15 colon, 32.1 µM; in the assay with A549 NSCLC, greater than 100 µM; in the assay on OVCAR-4 ovarian, greater than 100 µM; in the assay on RXF 393 renal it was greater than 100 µM; with COLO 205 colon, greater than 100 µM. Moreover, the TGI in the assay with ACHN renal and with MOLT-4 leukemia was greater than 100 µM each time.

Consider `O=C(CCCn1ccnc1[N+](=O)[O-])NCCn1ccnc1[N+](=O)[O-]`, for which the TGI with NCI-H522 lung, in the assay on HCT-15 colon, in the assay on A549 NSCLC, in the assay on OVCAR-4 ovarian, in the assay with COLO 205 colon and in the assay with ACHN renal was greater than 100 µM each time. Also, the TGI in the assay on MOLT-4 leukemia and with MDA-MB-435 was greater than 100 µM each time.

Regarding `Cc1cc([N+](=O)[O-])ccc1N=NC(=O)NNc1ccc([N+](=O)[O-])cc1C`, the TGI with NCI-H522 lung came to 51.7 µM; with HCT-15 colon it was 50.2 µM; in the assay with A549 NSCLC, 31.5 µM; in the assay on OVCAR-4 ovarian it was 31.9 µM; with ACHN renal, 29.4 µM; in the assay with MOLT-4 leukemia, 37.5 µM. In the assay on MDA-MB-435, the TGI was 28.4 µM.

Regarding `COc1cc(C2S/C(=C/c3ccccc3)C(=O)N2c2cccc([N+](=O)[O-])c2)cc(OC)c1OC` (centres undefined), the TGI in the assay with NCI-H522 lung, with HCT-15 colon, in the assay with A549 NSCLC, in the assay on MDA-MB-231 breast, in the assay on OVCAR-4 ovarian and in the assay on COLO 205 colon was greater than 100 µM in each case. Further, the TGI was greater than 100 µM in the assay on ACHN renal, greater than 100 µM in the assay with MOLT-4 leukemia and 41.2 µM in the assay on MDA-MB-435.

Consider `CN1CC2CC(C1)c1cccc(=O)n1C2` (centres undefined), for which the TGI with NCI-H522 lung, with HCT-15 colon, with A549 NSCLC, in the assay with MDA-MB-231 breast, in the assay with OVCAR-4 ovarian and with RXF 393 renal was greater than 100 µM each time. Also, the TGI in the assay with COLO 205 colon, in the assay with ACHN renal and in the assay on MDA-MB-435 was greater than 100 µM in each case.

Take `CN(C)CC(NC(NCS)C(=O)NCCNc1ccc(NCCNC(=O)C(NCS)NC(CN(C)C)OCCl)c2c1C(=O)c1c(O)ccc(O)c1C2=O)OCCl` (centres undefined): the GI50 is 0.0892 µM in the assay on HCT-15 colon, 1.05 µM in the assay with MDA-MB-231 breast and 0.373 µM with OVCAR-4 ovarian. Moreover, the TGI in the assay with HCT-15 colon was 1.73 µM and 1.74 µM; in the assay on A549 NSCLC, 1.54 µM; in the assay with MDA-MB-231 breast, 0.305 µM and 2.68 µM; in the assay on OVCAR-4 ovarian, 2.78 µM and 1.3 µM; with COLO 205 colon, 3.28 µM; with ACHN renal, 0.194 µM. The same molecule registered a TGI in the assay with MDA-MB-435 of 1.45 µM.

`CCC(C)C1(O)OC2CC3(C)OC(=CC3=O)/C(C)=C\C3OC(=O)C1(C)C32` (centres undefined): the TGI in the assay with NCI-H522 lung was 14.3 µM; in the assay on HCT-15 colon, 17.3 µM; in the assay on A549 NSCLC, greater than 100 µM; in the assay on MDA-MB-231 breast, 41.2 µM; in the assay on OVCAR-4 ovarian it was greater than 100 µM; with COLO 205 colon, 21 µM. The TGI in the assay with ACHN renal was 23.5 µM; in the assay with MOLT-4 leukemia, greater than 100 µM; with MDA-MB-435 it was greater than 100 µM.

`COC(=O)n1c(CBr)c(Br)c2ccccc21`: the TGI in the assay on NCI-H522 lung was 34.5 µM; in the assay with HCT-15 colon it was greater than 100 µM; in the assay with A549 NSCLC, greater than 100 µM; in the assay on OVCAR-4 ovarian, 66.2 µM; in the assay on COLO 205 colon, greater than 100 µM; with ACHN renal, 47.9 µM. In addition, in the assay with MOLT-4 leukemia, the TGI was determined as 76.3 µM.

Turning to `O=C(C#Cc1cn(C2CC(O)C(CO)O2)c(=O)[nH]c1=O)c1ccccc1` (centres undefined), the TGI with NCI-H522 lung is 17.7 µM; with HCT-15 colon it was greater than 100 µM; in the assay on A549 NSCLC it was greater than 100 µM; in the assay on MDA-MB-231 breast it was greater than 100 µM; in the assay with OVCAR-4 ovarian it was greater than 100 µM; with RXF 393 renal, 52.7 µM. In addition, the values for the TGI in the assay with COLO 205 colon, in the assay on ACHN renal and with MDA-MB-435 were 65.7 µM, greater than 100 µM and greater than 100 µM, respectively.

In the case of `CCCCCCOc1ccc(NC2=C(Cl)C(=O)c3ncccc3C2=O)cc1`, the TGI was 4.64 µM with HCT-15 colon; 8.96 µM with A549 NSCLC; 3.7 µM in the assay on RXF 393 renal; greater than 10 µM in the assay with ACHN renal; greater than 10 µM in the assay on MOLT-4 leukemia; 3.27 µM with MDA-MB-435.

Regarding `COc1ccc2c(c1)-c1oc3ccccc3c(=O)c1CO2`, the TGI in the assay on NCI-H522 lung was greater than 100 µM; in the assay on HCT-15 colon it was greater than 100 µM; in the assay with A549 NSCLC, greater than 100 µM; with MDA-MB-231 breast, 90.8 µM; in the assay with COLO 205 colon, greater than 100 µM; in the assay on ACHN renal it was greater than 100 µM. In addition, the TGI with MOLT-4 leukemia and in the assay on MDA-MB-435 was greater than 100 µM in each case.

Regarding `NC(=O)NCCCC(NC(=O)OCCCCCn1ccc(=O)[nH]c1=O)C(=O)O` (centres undefined), the TGI in the assay with HCT-15 colon, with A549 NSCLC, in the assay with MDA-MB-231 breast, in the assay with OVCAR-4 ovarian, in the assay with RXF 393 renal and in the assay with COLO 205 colon was greater than 100 µM each time. Also, the TGI with ACHN renal, in the assay with MOLT-4 leukemia and in the assay on MDA-MB-435 was greater than 100 µM throughout.

For the molecule `COc1cc(-c2nc3nc(N4CCN(C)CC4)ccc3[nH]2)c(OC)c2[nH]c(COC(C)=O)nc12`, the TGI in the assay with NCI-H522 lung was greater than 100 µM; with HCT-15 colon, greater than 100 µM; in the assay on A549 NSCLC it was greater than 100 µM; with MDA-MB-231 breast it was 63.6 µM; with OVCAR-4 ovarian, greater than 100 µM; in the assay with RXF 393 renal, 86.7 µM. The TGI in the assay with COLO 205 colon, in the assay with ACHN renal and with MDA-MB-435 was greater than 100 µM in each case.

Regarding `COc1ccc2c(c1)CC[C@@H]1[C@@H]2CC[C@]2(C)C(=O)/C(=C/c3cc(OC)c(OC)c(OC)c3)C[C@@H]12`, the TGI is greater than 100 µM in the assay with HCT-15 colon; greater than 100 µM with A549 NSCLC; 42 µM in the assay with MDA-MB-231 breast; greater than 100 µM in the assay on OVCAR-4 ovarian; 86.8 µM in the assay on RXF 393 renal; greater than 100 µM in the assay on COLO 205 colon. Further, the values for the TGI in the assay on ACHN renal, in the assay on MOLT-4 leukemia and in the assay on MDA-MB-435 were 40.7 µM, greater than 100 µM and greater than 100 µM, respectively.

With `COC(=O)c1cccc(C(=O)OC)c1`, the TGI in the assay with NCI-H522 lung, in the assay on HCT-15 colon, with A549 NSCLC, in the assay with OVCAR-4 ovarian, in the assay on RXF 393 renal and in the assay on COLO 205 colon was greater than 100 µM each time. For the same molecule, the TGI with ACHN renal and in the assay with MOLT-4 leukemia was greater than 100 µM throughout.

As to `COC(=O)CCN(CCC(=O)OC)C1CC1`, the TGI with HCT-15 colon, in the assay on A549 NSCLC, in the assay with MDA-MB-231 breast, in the assay on OVCAR-4 ovarian, in the assay with RXF 393 renal and in the assay with COLO 205 colon was greater than 100 µM in each case. In addition, the TGI in the assay with ACHN renal, in the assay with MOLT-4 leukemia and in the assay on MDA-MB-435 was greater than 100 µM throughout.
